The values below are quoted from earlier work in patent US20230040901A1, “PHARMACEUTICAL COMPOSITION FOR INHIBITING POSTOPERATIVE ADHESIONS” (PlantTec Medical GmbH, priority 2018, published 2023).

For data set [1], the system named is postoperative adhesions. Particulars: 2% to 4% citrate in water or saline solution, 60 experiments on rabbits.
Data set [2] relates to postoperative adhesions. Particulars: clinical application in 400 abdominal surgeries.

Turning to `O=C(O)CC(O)(CC(=O)O)C(=O)O` [citrate], the Adhesions entry in the data set on postoperative adhesions [1] is “fewer adhesions”. The Development of adhesions entry with postoperative adhesions [2] is “clear improvement”.
